Series [1] is described as follows: Ferric-Reducing Antioxidant Potential (FRAP) assay. The class given is biochemical. The note with it: pH 3.6, 593 nm. The method, then: (§1) The stock solutions of the reference antioxidants (ascorbic acid, Trolox, EDTA-Na2) and compounds 3a–j were prepared by dissolving the solid powders in DMSO, obtaining 2 mM stock solutions. Following this, an additional set of solutions (0.2 mM) for each compound was obtained by dilution with DMSO. Absorption spectra of the tested compounds covering the range from 400 nm to 800 nm were recorded, indicating no absorption peaks near the wavelengths employed in the experiments. All measurements in the presented assays were made against blank samples. To quantify the activity of the compounds 3a–j, for the antiradical assays (DPPH and ABTS) and ferrous ion chelation, IC50 was calculated using Equation (1), while for the electron transfer assays (TAC, RP, FRAP and CUPRAC), the reference number of mole equivalent activity for each compound was calculated using Equation (2). (1) radical scavenging (%)=control absorbance−sample absorbance/control absorbance×100 (2) equivalents of control=sample absorbance/control absorbance
The Ferric-Reducing Antioxidant Potential (FRAP) assay relies on the transfer of an electron from the antioxidant being assessed to Fe^3+, resulting in its conversion to Fe^2+. The resulting Fe^2+ ions are then chelated by 2,4,6-tripyridyl-s-triazine, giving a blue-colored complex, with an absorption maximum at λ = 593 nm. A 500 µL amount of the solutions (0.2 mM) of compounds and reference compounds was mixed with 600 µL FRAP reagent and 1200 µL acetate buffer (0.3 M, pH = 3.6), according to previous reports. The resulting solutions were mixed well in the dark, and their absorbance was measured spectrophotometrically.

The nature of series [2]: CUPRAC (CUPric-Reducing Antioxidant Capacity) assay. It is filed as biochemical. The note with it: 30 min, 450 nm. The protocol: as §1
The electron-donating capacity of compounds was assessed using the CUPRAC (CUPric-Reducing Antioxidant Capacity) method. The protocol for this assay is a modification of the reports of Alam et al., Özyürek et al., and Apak et al.. Volumes of 250 µL of CuCl2 10 mM, 1 mL of ammonium acetate buffer 1 M, and 250 µL of 7.5 mM neocuproine in ethanol were mixed with 125 µL of samples and reference compound solutions (0.2 mM). The mixtures were shaken for 30 min in the dark; after that, their absorbance was determined spectrophotometrically at λ = 450 nm.

Series [3] concerns human pulmonary malignant cells (A549). In words: Alamar Blue cytotoxicity assay, A549 cells. It is filed as cell-based. The note with it: for IC50: 48 h exposure, Alamar Blue, read-out: IC50 (±SD) A549; for Selectivity Index: ratio between the calculated IC50 on BJ and A549 cells, 48 h. The method, then: (§2) BJ cells were maintained in Dulbecco’s modified Eagle’s medium (DMEM) with low glucose (1 g/L), while the A549 cells were seeded in DMEM with high glucose (5 g/L). All media were supplemented with 10% fetal bovine serum (FBS) and 1% Penicillin/Streptomycin. […] Cellular media were refreshed every other day. Cells were either subcultured or used in experiments once they reached a confluency of 80–90%.
(§3) The cytotoxicity of the synthesized compounds was evaluated by Alamar Blue (AB) assays performed on both cell lines, A549 and BJ, after a 48 h exposure, as previously reported.
(§4) Briefly, approximately 7000 A549 cells and 4000 normal BJ cells were seeded in 100 µL cellular media in 96-well plates to achieve a confluency of 70–80% at the end of the experiment and left to attach overnight before exposure. […] Post-exposure, the media were removed, and the AB assay was performed, with cells being incubated with a 200 µM solution of resazurin for 4 h. The obtained fluorescence was measured at λexcitation = 530/25; λemission = 590/35.
(§5) The experiments included three biological replicates, each one including three technical replicates. The negative control (NC) consisted of cells exposed to a cell culture medium containing 0.2% DMSO and was used for data normalization (100%).

Series [4] in a line: DPPH radical-scavenging assay. It is filed as biochemical. The note with it: 30 min in the dark, 517 nm; read-out: IC50 against DPPH•. The protocol:
as §1
The DPPH˙ (2,2-diphenyl-1-picrylhydrazyl) radical-scavenging assay, initially reported by Brand-Williams et al., relies on transferring a hydrogen atom from the antioxidant substrate being analyzed to the stable violet radical of DPPH˙. This action converts DPPH˙ into a nonradical stable yellow compound. The reduction in absorbance of the DPPH˙ at λ = 517 nm corresponds to the quantity of neutralized reagent. To perform the DPPH assay, we took 50, 75, 100, 125, and 150 µL of each sample from their 0.2 mM stock solutions, then we adjusted the volumes with DMSO to ensure all samples reached a uniform final volume. These solutions were mixed with 1 mL of DPPH reagent and incubated in the dark for 30 min, as presented in literature reports.

Series [5] can be described thus: Ferrous ion chelation assay (ferrozine). On the set-up: key: - represents negligible activity. It is filed as biochemical. The method, then: as §1
To evaluate the ability of compounds to chelate ferrous ions, an assay was performed using an adaptation of Dinis et al.’s initial report. The solutions of the tested compounds (2 mM) were mixed well with 500 µL of FeSO4 (0.125 mM), and 500 µL of ferrozine 0.315 mM. After 10 min, the absorbance of the samples was determined spectrophotometrically at λ = 562 nm. EDTA-Na2 was used as a positive control, due to its exceptional ion chelation properties.

The nature of series [6]: ABTS radical cation decolorization assay. It is filed as biochemical. The note with it: 10 min, pH 7.4, 734 nm; read-out: IC50 against ABTS•+. The protocol: as §1
The decolorization assay of the green ABTS^•+ (2,2′-azinobis-(3-ethylbenzothiazoline-6-sulfonic acid) to ABTS, based on the report of Re et al., was conducted following our group’s published report. The chemical stability of the ABTS^•+ reagent prior to use was checked at λ = 734 nm over one hour, ensuring a consistent absorption (approximately equal to 0.7). The reagent was prepared in potassium phosphate buffer (0.1 M, pH = 7.4) and activated overnight using MnO2 [17]. In all cuvettes, we added 100 μL of the tested compound solutions (0.2 mM) in increasing concentrations up to 200 µL and 2000 µL of the ABTS^•+ reagent. The resulting mixtures were thoroughly shaken for 10 min at room temperature, in the absence of light. The optical absorbance of the resulting mixtures was then measured by spectrophotometry at λ = 734 nm.

Series [7] is described as follows: Total Antioxidant Capacity (TAC) assay. The note with it: 95 °C, 1.5 h, 695 nm. The class given is biochemical. The method, then: as §1
The Total Antioxidant Capacity (TAC) assay was conducted following the methodology outlined in our previous publication, which was based on initial reports from the literature. A volume of 10 mL of the reagent (0.6 M H2SO4, 28 mM Na3PO4 and 4 mM (NH4)6Mo7O24) and 1000 µL of the compound and standard solutions dispensed from the 2 mM stock solutions were mixed in sealed glass test tubes and incubated in a water bath at 95 °C for 1.5 h. After cooling the test tubes to room temperature, 1000 µL of each solution was diluted with 1000 µL of water. The absorbance of the solutions was then measured at λ = 695 nm.

Series [8] can be described thus: Reducing power (RP) assay. The class given is biochemical. The note with it: 50 °C, 20 min, pH 6.6. The method, then:
as §1
In the reducing power (RP) assay, the tested compounds performed the reduction of ferric ions from potassium ferricyanide, forming ferrocyanide, which gives a blue complex. The protocol followed is an adaptation of previously reported methodologies. In glass test tubes, 1000 µL of solutions containing compounds and standards measured from the 0.2 mM stock solutions were mixed with 400 µL of phosphate buffer (0.2 M, pH = 6.6) and 400 µL of K3[Fe(CN)6] solution (1% w/v). The tubes were sealed and incubated for 20 min in a water bath at 50 °C. After cooling to room temperature, 500 µL of trichloroacetic acid (10% w/w) was added to all test tubes The resulting mixtures were left for 0.5 h at room temperature. Subsequently, 250 µL of the resulting solutions were mixed with 140 µL of FeCl3 solution (0.1% w/v) and 1000 µL of distilled water, and the absorbance of the resulting solutions was determined at λ = 695 nm.

The test system of series [9] is normal human foreskin fibroblasts (BJ). In words: Alamar Blue cytotoxicity assay, BJ cells. The class given is cell-based. The note with it: for IC50: 48 h exposure, Alamar Blue. The method, then:
as §2, §3, §4, §5
For orientation: The colour change of resazurin is a common sign of viable cells or microbes.

Each structure is given as a SMILES string. Read-outs that look alike come from different tables or passages of the source.

In general, IC50 refers to the concentration needed to halve the response being measured. For `Oc1ccc(-c2csc(-c3ccc(Cl)cc3)n2)cc1O` [Compound 3c], the “FRAP Eq Trolox” value in series [1] turned out to be 1.10 Eq Trolox. Further, the “CUPRAC Eq Trolox” value in series [2] is recorded as 2.38 Eq Trolox. For the same compound, the IC50 in [3] turned out to be 8.16 µM; in series [4] it was 47.8 µM; in series [6], 15.7 µM; in series [9], 35.8 µM. In addition, the “Selectivity Index” value in series [3] is 4.39. Further, the “ferrous ion chelation percent” value in series [5] (0.25 µM), in series [5] (0.5 µM), in series [5] (1 µM), in [5] (1.5 µM) and in series [5] (2 µM) was “-” each time. Also, the “TAC Eq Ascorbic Acid” value in series [7] came to 0.83 Eq Ascorbic Acid. Also, the “RP Eq Ascorbic Acid” value in [8] is 1.47 Eq Ascorbic Acid. Also, the “RP Eq Trolox” value in series [8] stood at 1.22 Eq Trolox.

`Cc1nc(-c2ccc(O)c(O)c2)cs1` [Compound 3a]: the “FRAP Eq Trolox” value in series [1] amounted to 0.95 Eq Trolox. The “CUPRAC Eq Trolox” value in series [2] came out at 3.17 Eq Trolox. In addition, the IC50 is 31.5 µM in [3], 51.3 µM in series [4], 12 µM in series [6] and above 100 µM in series [9]. The “Selectivity Index” value in [3] is reported as above 3.17. Besides, the “ferrous ion chelation percent” value in series [5] (0.25 µM), in series [5] (0.5 µM), in [5] (1 µM), in [5] (1.5 µM) and in series [5] (2 µM) was “-” in each case. In addition, in series [7], the “TAC Eq Ascorbic Acid” value is reported as 0.38 Eq Ascorbic Acid. Also, the “RP Eq Ascorbic Acid” value in [8] was found to be 1.73 Eq Ascorbic Acid. For the same compound, in series [8], the “RP Eq Trolox” value came out at 1.44 Eq Trolox. Also, in series [9] (48 h, result in words), the “toxicity on BJ cells” value is “no significant toxicity on BJ cells”.

Turning to `COc1cc(-c2nc(-c3ccc(O)c(O)c3)cs2)cc(OC)c1OC` [Compound 3f, 4-(2-(3,4,5-trimethoxyphenyl)thiazol-4-yl)benzene-1,2-diol], the “FRAP Eq Trolox” value in [1] was 1.06 Eq Trolox. For the same compound, the “CUPRAC Eq Trolox” value in series [2] worked out at 3.05 Eq Trolox. Besides, the IC50 in series [3] (Homo sapiens, A549) is 8.76 µM; in [4] it was 54.6 µM; in series [6] it was 13.4 µM; in series [9] (Homo sapiens, Fibroblast), 82.6 µM. Moreover, the “Selectivity Index” value in series [3] was 9.43. Further, the “ferrous ion chelation percent” value in [5] (0.25 µM), in series [5] (0.5 µM), in series [5] (1 µM), in series [5] (1.5 µM) and in [5] (2 µM) was “-” throughout. Besides, the “TAC Eq Ascorbic Acid” value in series [7] came out at 1.22 Eq Ascorbic Acid. For the same compound, the “RP Eq Ascorbic Acid” value in [8] is 1.75 Eq Ascorbic Acid. For the same compound, in series [8], the “RP Eq Trolox” value was found to be 1.46 Eq Trolox.

As for `Oc1ccc(-c2csc(-c3ccccn3)n2)cc1O` [Compound 3h, 4-(2-(pyridin-2-yl)thiazol-4-yl)benzene-1,2-diol], the “FRAP Eq Trolox” value in series [1] is listed as 1.03 Eq Trolox. For the same compound, the “CUPRAC Eq Trolox” value in series [2] was 2.13 Eq Trolox. Moreover, the IC50 was 13.1 µM in [3] (Homo sapiens, A549); 40.3 µM in series [4]; 13.5 µM in series [6]; 76.7 µM in [9] (Homo sapiens, Fibroblast). Moreover, the “Selectivity Index” value in [3] is reported as 5.84. The “ferrous ion chelation percent” value in [5] (0.25 µM), in [5] (0.5 µM), in series [5] (1 µM), in series [5] (1.5 µM) and in series [5] (2 µM) was “-” throughout. Besides, the “TAC Eq Ascorbic Acid” value in [7] came to 1.34 Eq Ascorbic Acid. In addition, the “RP Eq Ascorbic Acid” value in series [8] was 2.06 Eq Ascorbic Acid. The “RP Eq Trolox” value in [8] is 1.71 Eq Trolox.

For `Cc1c(C)c2c(c(C)c1O)CCC(C)(C(=O)O)O2` (stereo not drawn) [Trolox, reference compound], the IC50 in series [4] stood at 38.1 µM; in series [6] it was 15.9 µM.

On to `O=C([O-])CN(CCN(CC(=O)[O-])CC(=O)O)CC(=O)O.[Na+].[Na+]` [EDTA–Na2, EDTA-Na2, reference compound], for which the “ferrous ion chelation percent” value in series [5] (0.25 µM) is 47.21%; in series [5] (0.5 µM), 55.24%; in series [5] (1 µM) it was 73.41%; in series [5] (1.5 µM) it was 86.52%; in [5] (2 µM), 96.20%.

With `O=C1O[C@H]([C@@H](O)CO)C(O)=C1O` [Ascorbic acid, reference compound], in [4], the concentration for half-maximal inhibition (IC50) was 53.5 µM.

Source of the values: paper PMC11351550, “Synthesis, Cytotoxicity and Antioxidant Activity Evaluation of Some Thiazolyl–Catechol Compounds” (Antioxidants, 2024).
